Laboratory results reported in patent US20190054054A1, “Methods reducing or preventing oxidation of high density lipoprotein (HDL)” (Amarin Pharmaceuticals Ireland Limited, priority 2017, published 2019).

Assays:
[1] = system: HUVECs; assay: NO and ONOO^− release from HUVECs pretreated with agents, then exposed to oxLDL (Example 11, Objective 1); assay type: cell-based, human; conditions: pretreatment 30 min, agents at 10 μM, then oxLDL 11 mg/dL up to 3 hr; for NO / ONOO^−: calcium ionophore 1.0 μM
Protocol: The omega-3 fatty acid, cis-5,8,11,14,17-eicosapentaenoic acid (EPA) and docosahexaenoic acid (DHA) were purchased from Sigma-Aldrich (Saint Louis, Mo.) and solubilized in redistilled ethanol to 11 mM under nitrogen atmosphere. EPA and DHA stock solutions were stored at −20° C. until use.
Human umbilical vein endothelial cells (HUVECs) were obtained from healthy, female donors and isolated into primary, proliferating cell cultures (Clonetics, San Diego, Calif.). […] The confluent cells (4 to 5×10^5 cells/35 mm dish) were plated with minimum essential medium containing 3 mM L-arginine and 0.1 mM BH4 [(6R)-5,6,7,8-tetrahydrobiopterin]. Before experimental use, the cells (from second or third passage) were rinsed twice with Tyrode-HEPES buffer with 1.8 mM CaCl2.
Venous blood was collected from healthy volunteers into vacutainer tubes containing sodium EDTA. […] The LDL subfraction was retained for additional experimentation. Plasma and lipoprotein fractions were maintained at 4° C. and protected from excessive exposure to light. Prior to oxidation experiments, EDTA was removed from the lipoprotein fraction using PD-10 desalting columns (GE Healthcare, Piscataway N.J.). After equilibration of the column with phosphate buffered saline (PBS), 2.5 mL of the lipoprotein fraction was loaded on the column and the flow-through discarded. The lipoprotein was then eluted with 3 mL of PBS. The LDL fractions were further diluted with PBS to obtain a 100 μg/mL apoB100 concentration.
LDL underwent oxidation following the addition of 10 μM CuSO4. To measure oxidation, 100 μL aliquots were removed and combined with 1.0 mL thiobarbituric acid (0.5%), 10 μL trichloroacetic acid (5%), 10 μL BHT (5 mg/mL in methanol), and 10 μL EDTA (5 mM). […] Sample TBARS concentrations were determined spectrophotometrically by measuring sample absorbances against a standard curve derived from the hydrolysis of 1,1,3,3-tetramethoxypropane.
Concurrent measurements of NO and ONOO^− were performed with tandem electrochemical nanosensors combined into one working unit with a total diameter of 200-400 nm. Their design is based on previously developed and chemically modified carbon-fiber technology. Each of the nanosensors was made by depositing a sensing material on the tip of a carbon fiber (length 4 to 5 μm, diameter 100-200 nm). The fibers were sealed with nonconductive epoxy and electrically connected to copper wires with conductive silver epoxy. Conductive films of polymeric Ni(II) tetrakis (3-methoxy-4-hydroxyphenyl) porphyrin and Mn(III) [2.2] paracyclophanyl-porphyrin were used for the NO and ONOO^− sensors, respectively.
The amperometric method (with a response time of 0.1 ms) provides a quantitative signal (current) that is directly proportional to changes (from basal levels) in NO or ONOO^− concentration. Amperometric measurements were performed with a Gamry III double-channel potentiostat. Basal NO or ONOO^− levels were measured by differential pulse voltammetry in separate experiments.
All measurements of NO and ONOO^− were performed on intact endothelial cells. The NO/ONOO^− nanosensor module was positioned 5±2 μm from the surface of each individual endothelial cell using a computer-controlled M3301 micromanipulator (x-y-z resolution of 0.2 μm) and microscope (both from World Precision Instruments, Berlin, Germany) fitted with a CD camera. […] Cells will then be treated with calcium ionophore (to maximally stimulate the release of nitrous molecules) and monitored continuously for changes in amperometric current.
Data are presented as mean+S.D. for (N) separate samples or treatment groups. Differences between groups were analyzed using the two-tailed, Student's t-test (for comparisons between only two groups) or ANOVA followed by Dunnett or Student-Newman-Keuls multiple comparisons post-hoc analysis (for comparisons between three or more groups). Alpha error was set to 0.05 in this study.
NO and ONOO^− release were measured following stimulation with calcium.

[2] = system: human sdLDL; assay: Copper-induced sdLDL oxidation, TBARS (Example 7); assay type: biochemical; conditions: for effect on sdLDL oxidation as compared to vehicle-treated controls: all at 10 μM, 1 hour (FIG. 16)
Protocol: An experiment to study the antioxidant effect of EPA in LDL and small dense […] performed. […] Fenofibrate, gemfibrozil, and niacin were purchased from Sigma-Aldrich. […] Vitamin E was also incubated with sample aliquots as a positive control.

Row | Compound | NO [1] | ONOO^− [1] | inhibition of sdLDL oxidation as compared to vehicle ([2]; 1.0 μM (each agent), 1 hr) [%] | effect on sdLDL oxidation as compared to vehicle or DHA ([2]; 10.0 μM, after 4 hours) | IC50 ([2]; 1 hr, 10 μM CuSO4, read-out: IC50, inhibition of sdLDL oxidation (calculated)) [µM] | inhibition of sdLDL oxidation as compared to vehicle ([2]; each agent at 10.0 μM, 1 hour (FIG. 17)) [%] | inhibition of TBARS formation ([2]; highest treatment concentration (10 μM), 1 hr) [%] | NO/ONOO^− Ratio [1] | NO/ONOO^− Ratio ([1]; listed as Niacin) | effect on sdLDL oxidation as compared to vehicle-treated controls [2] | NO/ONOO^− Ratio ([1]; listed as Gemfib)
1 | CC/C=C\C/C=C\C/C=C\C/C=C\C/C=C\CCCC(=O)O [EPA, cis-5,8,11,14,17-eicosapentaenoic acid] | 394 ± 43 | 228 ± 10 | 19±8 | significantly inhibited sdLDL oxidation | ~2 | 92±8 | 93±2 |  |  |  | 
2 | O=C(O)c1cccnc1 [niacin, nicotinic acid] | 346 ± 17 | 238 ± 20 |  |  |  |  |  | 1.45±0.14 | 1.45 ± 0.14 | no significant effect on sdLDL oxidation | 
3 | CC/C=C\C/C=C\C/C=C\C/C=C\C/C=C\C/C=C\CCC(=O)O [DHA, docosahexaenoic acid] | 378 ± 5 | 229 ± 16 |  |  |  |  |  |  |  |  | 
4 | Cc1ccc(C)c(OCCCC(C)(C)C(=O)O)c1 [gemfibrozil] | 377 ± 24 | 228 ± 11 |  |  |  |  |  | 1.65±0.13 |  | no significant effect on sdLDL oxidation | 1.65 ± 0.13
5 | Cc1c(C)c2c(c(C)c1O)CC[C@@](C)(CCC[C@H](C)CCC[C@H](C)CCCC(C)C)O2 [vitamin E, α-tocopherol] |  |  |  |  |  |  |  |  |  | no significant effect on sdLDL oxidation | 
